Results taken from patent EP0470323A2, “New salts of the nicotinic acid with aminobenzylic compounds and their pharmaceutical use” (BROMLEY LIMITED, priority 1990, dated 1992).

What was measured:
[1] = test system: Central artery of a rabbit's ear; test: In vitro antispastic action, adrenalin-induced spasm of the perfused isolated artery; settings: for % inhibi-tions of the con-tractions: spasm induced by Adrenalin, n=4
Experimental: An "in vitro" method has been used, according to which the withdrawal of the central artery of a rabbit's ear with the relevant nervous connections and the equipment of an appropriate seat for secluded organs was designed (Fleckenstein A., British Journal of Pharmacology 7, 533, 1952).
On the artery they did install a three-ways tube, connected with a peristaltic pump and with a mercury manometer to record the perfusion pressure. The artery was perfused with a rebs liquid at the speed of 2,5 ml/minute. The contractions were induced by injecting into the vessel 0,1 ml adrenalin at the concentration of 1 mcg/ml. The compound according to the example 1 has been added to the bath at concentrations of 0,5 - 1 - 2 uM, five minutes before the adrenalin (four preparations per concentration). As comparison drugs, chlorhydra ted Buflomedil and Papaverin have been used. The activity of the material under investigation has been appreciated in terms of percentages referring to the concentration induced by the Adrenalin (and expressed with DE₅₀) and the relevant forbidding.

[2] = test system: skin temperature of the mouse's paw; test: Peripheral vessel-dilating activity in the mouse (skin temperature of hind paws); assay type: in vivo; settings: for Temperature (°C) of the hind paws (n=10): intravenous, dose 0,030 mM/kg/iv; for Temperature (°C) of the hind paws: oral, dose 0,500 mM/kg/os
Experimental: The method of Richter W. (Acta Pharm. Toxicol. 21, 91; 1974) was used; it consists in determining, at fixed time intervals after the treatment, the skin temperature of the mouse's paw, by keeping the animals in rooms at a constant temperature of 21°C.
Some groups of ten male mouses each have been used; the weight of each animal was 30 g approximately.
The compound according to the Example 1 has been tested "per os" at three basic levels of the doses (0,125 - 0,25 - 0,5 mM/kg) and by intravenous injection at two dose levels (0,015 and 0,03 mM/kg), in comparison with one sole dose of Papaverin and chlorhydrated Buflomedil (0,5 mM/kg "per os" and 0,03m M/kg intravenous). The observation of the skin temperature at the mouse's paw was made before the treatment, 30, 60 and 120 minutes after the "per os" treatment, […] (A-Hl Ellab) connected with an Ellab electric recorder. Of each animal the temperature of both hind paws has been measured, and the values obtained have been averaged .

red cells in the rat [3] = test: Red cell adhesivity / filtration, Teitel method; assay type: in vivo
Excerpt: (§1) steresis (Teiltel P.: Nouv. Rev. Franç. Hématol. 7, 195, 1967). Any alteration, almost undoubtely at the level of the red cell's membrane, cause some damaging variations of the red cell's elasticity thus making more difficult the passing through the capillary vessels having more reduced diameter, and therefore increasing the flow resistance in the peripheral vessels systems. In order to determine the effect caused by the compound according to the Example 1, on these features of the red cell, the method described by Schmidt, Schonbein and colleagues (Blut 26, 369, 1973) has been used.
(§2) In the circulatory flow, the above mentioned capillary vessels being excluded, the blood cells do normally circulate being attached between each other because of their adhesiveness. In order to study this adhesion force, the above mentioned Teitel method has been used. Male rats of 150 g body weight approximately have been employed, and they have been treated for three consecutive days with 0,5 mM/kg/os of the compound according to the Example 1, or otherwise Buflomedil, or even Pentosiphillin used as comparison substance. After the last treatment the animals, without eating from 18 hours, have been killed in a light ethereal anaesthesy and the blood was collected over an 0,2 molar EDTA (9 and 1 volumes respectively). The red cells filtering possibility, measured with the Teitel method, wherein the quantity of red cells passing, in high haematocritical conditions, through a paper filter with holes of 20-40 µm in a previously determined time, has been ascertained as follows: the blood was centrifuged for ten minutes at 2000 rpm in order to obtain the massing of the red cells, two ml of the blood collected as above were put into an upside down turned cone made with filtering paper, being previously wetted with a physiological solution. The volume passing through the filter in 2 - 4 - 8 and 16 minutes is then measured. The average filtration time T 1/2 is reckoned on semi-logarithmic paper by putting on the abscissae the logarithm of the time, and on the ordinates the percentage of blood filtered. In order to follow the Schmidt Schönbein method, the here after described proceeding has been performed: 0,2 ml of a suspension of red cells at 2% obtained by diluting the blood with the autological plasma, then it was placed into an appropriate device permitting to filter this blood through a filter (millipores) of 5 µm mashes at a filtration pressure of 50 mm water. With a chronometer one determines the time required for the passage of the whole sample through the filter.
At time same time, one measures, in the same conditions, the same parameter for a plasma sample. One calculates then the relative filtration time by dividing the time required to filter the diluted blood sample by the time being necessary to filter the plasma sample. For each group the average and the standard error of the individual data obtained was reckoned. The statistical evaluation was obtained by means of the Dunnett test.

red cells in the rat [4] = test: Red cell deformability / filtration, Schmidt-Schönbein method; assay type: in vivo; settings: dose 3 x 0,5 mM/kg/os
Excerpt: as §1
as §2, with “The average filtration time T 1/2 is reckoned on semi-logarithmic paper by putting on the abscissae the logarithm of the time, and on the ordinates the percentage of blood filtered. In order to follow the Schmidt Schönbein method, the here after described proceeding has been performed: 0,2 ml of a suspension of red cells at 2% obtained by diluting the blood with the autological plasma, then it was placed into an appropriate device permitting to filter this blood through a filter (millipores) of 5 µm mashes at a filtration pressure of 50 mm water. With a chronometer one determines the time required for the passage of the whole sample through the filter.” left out

[5] = test system: hypertrigliceridaemia from olive oil in the rats; test: Hypertriglyceridaemia from olive oil in the rat (serum lactescence); assay type: in vivo; settings: dose 2 mM/kg/os
Experimental: The method described by Zucker I.H. (Sci. Anal. Lab. 24, 114, 1972) has been followed.
Male rats have been used, whose body weight was 150-200 g. The animals were without eating with water "ad libitum" and all this beginning 24 hours before the experiment. The hyperlipaemia was induced by the administration of olive oil by mouth; its composition as to the fat acids was as follows: palmitic acid 10% palmitoleic acid 1%, stearic acid 3%, […] and linoleic acid 7% (all percentages are by weight). The quantity of olive oil administered, by means of a gastric probe, was 10 ml/kg. The treatments were made by finely pounding with a china mortar and by suspending in the olive oil the examined compounds. […] The positive control animals received only olive oil; moreover, there was also a group of negative control animals who received plain water in quantities of 10 ml/kg. Every three hours a group of rats (10) was killed in a light ethereal anaesthesia, in order to be able to appreciate the percentage of triglycerides in the blood. The animals were bled by cutting them the carotids and the blood was collected in plastic test-tubes, capacity 10 ml each, and was centrifuged for ten minutes at 3500 rpm. The evaluated parameter was the lactescence of the serum, which is directly proportional to the contents of kilomicrons and therefore of triglycerides (Zucker, see above the mention). The serum has been diluted 1:5 in a physiologic solution and was read at the spectrophotometer at […] against white (physiologic solution). From the individual optical Density (D.O.) data one could calculate for each group the average of the standard error. The statistical analysis was performed by means of the t of Dunnett.

[6] = test system: Hypercholesterolaemia caused by Trit WR1339 in the mouses; test: Hypercholesterolaemia of the mouse caused by Triton WR 1339; assay type: in vivo; settings: dose 2 mM/kg per os
Experimental: The method described by Garattini S. (Arzneim,Forsch 9, 206; 1959) with some modifications has been followed.
The mouses used have been males of 22 to 28 grams body weight, on an empty stomach but with water "ad libitum" since 12 hours. The hyperlipidaemia was induced by means of an intraperitoneum administration of […] of Triton WR 1339, with dosage 300 mg/kg in a physiological solution. The subject products were administered at the same time in clear plain water, always in a volume of […] by means of a gastric probe. The animals were sacrified after 20 hours, by cutting them the carotids. The blood was collected in some plastic test-tubes, and was centrifuged at 3500 rpm for ten minutes. Thereafter the total cholesterol (Sornay R and colleagues, Arzeneim Forsch, 26,885 1976) and the total lipids (Chonhelmer R and colleagues, Biological Chemistry 106, 745, 1934) were determined.

[7] = test system: Hypertriglyceridaemia caused by ethanole in the rats; test: Hypertriglyceridaemia caused by ethanol in rats, activity at three dose levels; assay type: in vivo; settings: rat
Excerpt: (§3) For this test group the methods described by Sistori C.R. and colleagues (Atherosclerosis 30, 45; 1978) is followed.
(§4) The hypertriglyceridaemia has been induced into the male rats having a body weight of 160 - 170 g by giving them to drink, for 4 consecutive days, a solution of 10% ethanole in water.

[8] = test system: Hypertriglyceridaemia caused by ethanole in the rats; test: Hypertriglyceridaemia caused by ethanol in rats, duration of the effects; assay type: in vivo; settings: rat, dose 1 mM/kg/os
Excerpt: as §3, §4
In order to perform the particular kinetics of the compound in accordance with the example 1 following the instant invention, it was considered appropriate, anyway, to evaluate the duration of the hypolipaemizing effect in comparison to that of the nicotinic acid.
A group of normal animals was treated with the vehicle only and did serve as a negative control group.

[9] = test system: aggregation of the platelets caused by the collagene; test: Anti-aggregating ex vivo activity against collagen in the rat; settings: rat, 1,00 mM/kg os for 4 days
Experimental: Six groups of 15 male rats of 200 - 250 g have been used.
The blood taken from the three rats of each group has been mixed and centrifuged during 6 minutes at 1400 rpm, at room temperature. After having taken the plasma full of platelets (PRP) the thereunder floating material has been centrifuged again (4000 rpm during 10 minutes) in order to have the plasma with few platelets (PPP) separated from the balance. The PRP has been diluted with a part of PPP in order to bring the number of platelets to 350 ± 50 x 10³/mm³. The aggregation has been evaluated in accordance with the method of Minsker D.H. and coll. (J. Pharmacol.Exp.Ther. 210 37 1979) by using an ELVI 840 two-channels aggregometer and an Omniscribe recorder B.500. A quantity of 0,25 ml PRP has been used, transferred into the aggregometer for two minutes at 37°C and stirred at 1000 rpm. The light intensity was arranged in such a way, to obtain 0% transmittance with the PRP and 100% with the PPP. After 2′ incubation, by means of microsyringe the collagene was added to the PRP in a volume quantity of 5 mcl with the final concentration of 4 mcg/ml.
From the aggregation trace of the recorder the following data have been evaluated: • a) latent time of the aggregation (seconds between the introductions of collagene and the starting of the aggregation) • b) transmittance increase percentage (maximum aggregation). The same proceeding was repeated for all animals, always by mixing the blood of three rats belonging to the same group and by obtaining in this manner five aggregation curves per group.

[10] = 0 minutes (before the treatment)
[11] = 20 hours after Triton WR 1339 i.p.
[12] = PRP 2 hours after last treatment, collagene 4 mcg/ml

COc1ccc(Cc2nccc3cc(OC)c(OC)cc23)cc1OC [Papaverin, reference compound]
EC50 ([1]; Oryctolagus cuniculus, read-out: DE50): 760 nM | % inhibi-tions of the con-tractions ([1]; concentration 0,5 μ M): 33% | % inhibi-tions of the con-tractions ([1]; concentration 1,0 μ M): 64% | % inhibi-tions of the con-tractions ([1]; concentration 2,0 μ M): 81% | Temperature (°C) of the hind paws (n=10) [2, 10]: 24,5 ± 0,28 °C | Temperature (°C) of the hind paws (n=10) ([2]; 30 minutes from the treatment): 26,6 ± 0,25 °C | Temperature (°C) of the hind paws (n=10) ([2]; 60 minutes from the treatment): 25,7 ± 0,20 °C | Temperature (°C) of the hind paws (n=10) ([2]; 120 minutes from the treatment): 25,5 ± 0,23 °C | Temperature (°C) of the hind paws [2, 10]: 24,8 ± 0,35 °C | Temperature (°C) of the hind paws ([2]; 30 minutes from the treatment): 25,5 ± 0,21 °C | Temperature (°C) of the hind paws ([2]; 60 minutes from the treatment): 25,9 ± 0,25 °C | Temperature (°C) of the hind paws ([2]; 120 minutes from the treatment): 25,1 ± 0,30 °C

CC(=O)CCCCn1c(=O)c2c(ncn2C)n(C)c1=O [pentossifillin]
Teitel method Δ % vs contr. (red cells in the rat [3]; dose 3 x 0,5 mM/kg/os): 40,1% | Teitel method T1/2 min. M ± E.S. (red cells in the rat [3]; dose 3 x 0,5 mM/kg/os (three consecutive days)): 2,18 ± 0,19 min. | Schmidt-Schönbein method Δ % vs contr. (red cells in the rat [4]): 52,8%

O=C(O)c1cccnc1 [Nicotinic acid, nicotinic acid]
Serum opt.density at the indicated times (M ± E.S.) ([5]; 3 h): 258 ± 14,9 | Serum opt.density at the indicated times (M ± E.S.) ([5]; 6 h): 1312 ± 58,2 | Serum opt.density at the indicated times (M ± E.S.) ([5]; 9 h): 1161 ± 53,2 | Serum opt.density at the indicated times (M ± E.S.) ([5]; 12 h): 1000 ± 31,3 | Serum opt.density at the indicated times (M ± E.S.) ([5]; 15 h): 510 ± 18,4 | Serum opt.density at the indicated times (M ± E.S.) ([5]; 18 h): 250 ± 21,4 | Tot.Cholesterol M ± E.S. [6, 11]: 215 ± 16 mg/100 ml | Tot.Lipids M ± E.S. [6, 11]: 1643 ± 131 mg/100 ml | Tot.Cholesterol % vs contr. ([6]; reduction): 39,9% | Tot.Lipids % vs contr. ([6]; reduction): 32,5% | Triglycerids M ± E.S. ([7]; dose 1,0 mM/kg/os once a day for 4 days, 4 hours after last treatment): 156,4 ± 18,1 mg/100 ml | Triglycerids % vs contr. positivi ([7]; dose 1,0 mM/kg/os, 4 hours after treatment): -24,7% | decrease (of triglycerides vs positive controls) ([7]; dose of 1 mM/kg per os): 24,7% | % variation vs positive controls (Trigliceridi) ([8]; 4 h): -29,4% | Trigliceridi ([8]; 4 h from the last treatment): 181,6 ± 15,7 mg/100 ml | % variation vs positive controls (Trigliceridi) ([8]; 6 h): -25,5% | Trigliceridi ([8]; 6 h from the last treatment): 176,0 ± 11,2 mg/100 ml | % variation vs positive controls (Trigliceridi) ([8]; 12 h): -10,3% | Trigliceridi ([8]; 12 h from the last treatment): 184,6 ± 8,9 mg/100 ml | % variation vs positive controls (Trigliceridi) ([8]; 16 h): -3,1% | Trigliceridi ([8]; 16 h from the last treatment): 180,7 ± 14,5 mg/100 ml | % variation vs positive controls (Trigliceridi) ([8]; 24 h): +7,9% | Trigliceridi ([8]; 24 h from the last treatment): 178,4 ± 9,7 mg/100 ml | Latency time, % variation vs controls [9]: +8,0% | Transmittance percentage, % variation vs controls [9]: -13,0% | Latency time (sec.) [9, 12]: 40,5 ± 4,0 sec. | Transmittance percentage (maximum aggregation) [9, 12]: 68,4 ± 5,2%
